{
  "source": "patent US8748598B2",
  "about": "“Analogs of 3-O-acetyl-11-keto-beta-boswellic acid” (Laila Nutraceuticals, priority 2004, dated 2014)",
  "key": {"[1]": {"test_system": "Jurkat", "assay_type": "cell-based, human", "design": "minimum inhibitory concentration (MIC) Jurkat: unit not given here", "settings": "for minimum inhibitory concentration (MIC) Jurkat: MTT assay", "protocol": "(§1) MTT [3-(4,5-dimethylthiazol-2-yl)-2,5-diphenyltetrazolium bromide] incorporation based cell proliferation assay was performed as described previously (Reference). The cytotoxic efficacy of some analogs was evaluated in different cell lines by MTT cell proliferation assay kit (Roche Applied Sciences, Germany). The assay was carried out according to the instruction provided by the vendor. Briefly, in brief, equal numbers of cells was plated in 96-well flat-bottomed plates in 100 μl of medium and were exposed to different analogs selected from 1 to 63 at various concentrations up to 10 μg/ml for a period of three days. Vehicle control culture wells received only a maximum of 0.5% DMSO. Thereafter, 0.5 mg/ml of MTT reagent was added to each well and the microplate was incubated further for 4 h at 37° C. in presence of 5% CO2. Finally, the cells were solubilized by adding solubilizing solution and allowed to incubate at 37° C. overnight. After complete solubilization of the formazan crystals the absorbance was read at 540 nm in a microplate reader (BioRad, USA). The results (mean OD±SD) obtained from quadruplicate wells were used in calculation to determine the inhibition of cell proliferation (50% of inhibitory concentration, IC50) of the test compounds.\n(§2) The cytotoxic properties of some analogs were evaluated by MTT incorporation assay. The methodology of the assay procedure was the same as mentioned in example 41."}, "[2]": {"test_system": "PC3M", "experiment": "Cytotoxicity MTT assay, PC3M", "assay_type": "cell-based, human", "design": "minimum inhibitory concentration (MIC) PC3M: unit not given here", "settings": "for minimum inhibitory concentration (MIC) PC3M: MTT assay"}, "[3]": {"test_system": "HePG2", "experiment": "Cytotoxicity MTT assay, HePG2", "assay_type": "cell-based, human", "design": "unit not given here", "protocol": "as §1, §2"}, "[4]": {"test_system": "Freund's Adjuvant-induced arthritis in Wistar Albino rats", "experiment": "Freund's adjuvant-induced arthritis, paw edema", "assay_type": "in vivo", "settings": "10 mg/kg daily oral for 30 days; edema 13 days after Freund's Adjuvant", "protocol": "The Wistar Albino rats were divided into four groups with […] each group. The two treatment groups, each containing 6 animals, were orally supplemented with one of the two analogs namely glycinate of AKBA (10) or piperazine amide of AKBA (23) in 1% carbomethylcellulose (CMC) at a daily dose of 10 mg/kg for 30 days. The control group of animals received same volume of 1% CMC orally and a positive control group received 10 mg/kg daily dose of prednisolone for direct comparison. Following the 30 day treatment and one hour after the last dose all the animals were challenged with 0.1 mL of 1% solution of Freund's Adjuvant through a subcutaneous injection in the sub-plantar region of left hind paw. The paw volume was measured using a plethymograph. The difference between the paw volumes measured before and 13 days after the Freund's Adjuvant injection was taken as edema volume. The percentage inhibition was calculated by comparing the mean edema of the control group and treatment groups."}, "[5]": {"test_system": "MDA-MB-231", "experiment": "MTT cell proliferation assay, MDA-MB-231", "assay_type": "cell-based, human", "settings": "for IC50 / inhibition at 10 µg/mL: Homo sapiens, MDA-MB-231", "protocol": "as §1, §2"}, "[6]": {"test_system": "MCF-7", "experiment": "MTT cell proliferation assay, MCF-7", "assay_type": "cell-based, human", "settings": "Table 4", "protocol": "as §1, §2"}, "[7]": {"test_system": "potato 5-lipoxygenase", "experiment": "5-Lipoxygenase enzyme inhibitory activity", "assay_type": "biochemical", "protocol": "5-Lipoxygenase enzyme inhibitory activity was measured using the method of Schewe et al. (Adv Enzymol, Vol 58, 191-272, 1986), modified by Reddanna et. al., (Methods of Enzymology, Vol 187, 268-277, 1990). The assay mixture contained 80 μM linoleic acid and sufficient amount of potato 5-lipoxygenase in 50 mM phosphate buffer (pH 6.3). The reaction was initiated by the addition of enzyme buffer mix to linoleic acid and the enzyme activity was monitored as the increase in absorbance at 234 nm. The reaction was monitored for 120 sec and the inhibitory potential of the test substances (29, 31, 33, 34, 35, 36, 39, 40, 43, 44, 46, 47, 48, 49, 50, 54, 57, 59, 62 & 63) was measured by incubating various concentrations of test substances two minutes before the addition of linoleic acid. All assays were performed three times. Percentage inhibition was calculated by comparing the slope of the curve obtained for test substances with that of the control."}, "[8]": {"test_system": "A549", "experiment": "MTT cell proliferation assay, A549", "assay_type": "cell-based, human", "settings": "Homo sapiens, A549; Table 2; 10 ug/ml", "protocol": "as §1"}, "[9]": {"test_system": "B16", "experiment": "MTT cell proliferation assay, B16", "assay_type": "cell-based, mouse", "settings": "Mus musculus, B16; Table 2; 10 ug/ml", "protocol": "as §1"}},
  "note": "Read-outs that look alike come from different tables or passages of the source.",
  "data": [
    {"smiles": "COc1cc(C(=O)O[C@@H]2CC[C@@]3(C)C(CC[C@]4(C)C3C(=O)C=C3C5[C@@H](C)[C@H](C)CC[C@]5(C)CC[C@]34C)[C@@]2(C)C(=O)O)cc(O)c1O", "note": "(some centres unmarked) [Analog 3]", "values": [
      {"measurement": "minimum inhibitory concentration (MIC) Jurkat", "setting": "[1]", "result": 125},
      {"measurement": "cytotoxicity against PC3M", "setting": "[2]", "result": "significantly more potent"},
      {"measurement": "minimum inhibitory concentration (MIC) PC3M", "setting": "[2]", "result": 30},
      {"measurement": "minimum inhibitory concentration (MIC) HePG2", "setting": "[3]", "result": 150}
    ]},
    {"smiles": "C[C@@H]1CC[C@]2(C)CC[C@]3(C)C(=CC(=O)C4[C@@]5(C)CC[C@@H](OC(=O)CN)[C@](C)(C(=O)O)C5CC[C@]43C)C2[C@H]1C", "note": "(some centres unmarked) [Analog 10]", "values": [
      {"measurement": "inhibition of paw edema", "setting": "[4]", "result": 12, "unit": "%"},
      {"measurement": "IC50", "setting": "[5]; Table 4", "result": 19.5, "unit": "mg/L"},
      {"measurement": "IC50", "setting": "[6]; Homo sapiens, MCF7", "result": 26.9, "unit": "mg/L"},
      {"measurement": "minimum inhibitory concentration (MIC) Jurkat", "setting": "[1]", "result": 50},
      {"measurement": "minimum inhibitory concentration (MIC) PC3M", "setting": "[2]", "result": 50},
      {"measurement": "minimum inhibitory concentration (MIC) HePG2", "setting": "[3]", "result": ">150"}
    ]},
    {"smiles": "C[C@H](N)C(=O)O[C@@H]1CC[C@@]2(C)C(CC[C@]3(C)C2C(=O)C=C2C4[C@@H](C)[C@H](C)CC[C@]4(C)CC[C@]23C)[C@@]1(C)C(=O)O", "note": "(some centres unmarked) [Analog 11]", "values": [
      {"measurement": "IC50", "setting": "[5]; Table 4", "result": 28.9, "unit": "mg/L"},
      {"measurement": "IC50", "setting": "[6]; Homo sapiens, MCF7", "result": 33.3, "unit": "mg/L"},
      {"measurement": "minimum inhibitory concentration (MIC) Jurkat", "setting": "[1]", "result": 50},
      {"measurement": "minimum inhibitory concentration (MIC) PC3M", "setting": "[2]", "result": 30},
      {"measurement": "minimum inhibitory concentration (MIC) HePG2", "setting": "[3]", "result": "100-150"}
    ]},
    {"smiles": "CC(=O)OC1CC[C@@]2(C)C(CC[C@]3(C)C2C(=O)C=C2C4[C@@H](C)[C@H](C)CC[C@]4(C)CC[C@]23C)[C@@]1(C)C(N)=O", "note": "(some centres unmarked) [Analog 19]", "values": [
      {"measurement": "Percentage Inhibition of cell proliferation MDA-MB-231", "setting": "[5]; Table 4, 10 μg/ml", "result": 38.72, "unit": "% at 10 μg/ml"},
      {"measurement": "IC50 values MCF-7", "setting": "[6]", "result": "IC50 at 30.05 μg/ml"},
      {"measurement": "cytotoxicity against leukemia cells", "setting": "[1]", "result": "highly potent selectively"},
      {"measurement": "minimum inhibitory concentration (MIC) Jurkat", "setting": "[1]", "result": 10},
      {"measurement": "minimum inhibitory concentration (MIC) PC3M", "setting": "[2]", "result": ">150"},
      {"measurement": "minimum inhibitory concentration (MIC) HePG2", "setting": "[3]", "result": ">150"}
    ]},
    {"smiles": "CC(=O)O[C@@H]1CC[C@@]2(C)C(CC[C@]3(C)C2C(=O)C=C2C4[C@@H](C)[C@H](C)CC[C@]4(C)CC[C@]23C)[C@@]1(C)C(=O)NN", "note": "(some centres unmarked) [Analog 20]", "values": [
      {"measurement": "inhibition at 10 µg/mL", "setting": "[6]; Homo sapiens, MCF7, 10 μg/ml, read-out: Percentage Inhibition of cell proliferation MCF-7", "result": 44, "unit": "%"},
      {"measurement": "minimum inhibitory concentration (MIC) Jurkat", "setting": "[1]", "result": 50},
      {"measurement": "cytotoxicity against PC3M", "setting": "[2]", "result": "significantly more potent"},
      {"measurement": "minimum inhibitory concentration (MIC) PC3M", "setting": "[2]", "result": 10},
      {"measurement": "minimum inhibitory concentration (MIC) HePG2", "setting": "[3]", "result": 40}
    ]},
    {"smiles": "CC(=O)O[C@@H]1CC[C@@]2(C)C(CC[C@]3(C)C2C(=O)C=C2C4[C@@H](C)[C@H](C)CC[C@]4(C)CC[C@]23C)[C@@]1(C)C(=O)N(C)C", "note": "(some centres unmarked) [Analog 31]", "values": [
      {"measurement": "% inhibition at 10 μg/ml", "setting": "[7]; 10 μg/ml", "result": 18.57, "unit": "%"},
      {"measurement": "% inhibition at 25 μg/ml", "setting": "[7]; 25 μg/ml", "result": 36.73, "unit": "%"},
      {"measurement": "inhibition at 10 µg/mL", "setting": "[5]; Table 2, 10 ug/ml, read-out: Inhibition of cell proliferation MDA-MB-231, % at 10 ug/ml", "result": 46, "unit": "%"},
      {"measurement": "inhibition at 10 µg/mL", "setting": "[5]; Table 4, 10 μg/ml, read-out: Percentage Inhibition of cell proliferation MDA-MB-231", "result": 46, "unit": "%"},
      {"measurement": "inhibition at 10 µg/mL", "setting": "[8]", "result": 17, "unit": "%"},
      {"measurement": "inhibition at 10 µg/mL", "setting": "[9]", "result": 10, "unit": "%"}
    ]}
  ]
}
